This note sets out measurements from ChEMBL document CHEMBL1138895, “Synthesis and antibacterial activity of nocathiacin I analogues” (Bioorg Med Chem Lett, 2006).

Each structure is given as a SMILES string. Values after ≈ are worked out from the molar mass of the structure shown.

The subject of one series is Streptococcus pneumoniae. As to the kind of experiment: Antibacterial activity against penicillin resistant Streptococcus pneumoniae A28272. It is filed as functional.
Series [1] can be described thus: Solubility at pH 3.1. It is filed as physicochemical. To be noted: buffer.
Another series deals with Enterococcus faecalis. The series is described as follows: Antibacterial activity against […] A20688. The format is functional.
The subject of another series is Staphylococcus aureus. As to the kind of experiment: Antibacterial activity against methicillin-sensitive Staphylococcus aureus A15090. The format is functional.
The next series is filed under the species Mus musculus. The series is described as follows: Activity against Staphylococcus aureus A15090 infected ICR mouse after 8 days. The note with it: 192 h, read-out: PD50. The format is functional.
Series [2] in a line: Solubility at pH 3.2. The note with it: buffer. The format is physicochemical.
Series [3] in a line: Solubility at pH 3.0. The format is physicochemical. The note with it: buffer.

As for `CO/C(C)=C1/NC(=O)[C@H]([C@@H](C)O)NC(=O)c2csc(n2)-c2cc(O)c(-c3nc(C(=O)N[C@@H](C)C(=O)N4CCC[C@H]4CO)cs3)nc2-c2csc(n2)[C@@H]2COC(=O)c3c4c5c(cccc5n3O)COC(=O)[C@@H](O[C@H]3C[C@](C)(O)[C@H](N(C)C)[C@H](C)O3)[C@@H](OC4)[C@H](NC(=O)c3csc1n3)c1nc(cs1)C(=O)N2`, the MIC against Streptococcus pneumoniae stood at 0.015 µg/mL (≈ 0.00984 µM); in the series with Enterococcus faecalis it was 0.25 µg/mL (≈ 0.164 µM); in the series with Staphylococcus aureus it was 0.03 µg/mL (≈ 0.0197 µM). Moreover, in series [1], the solubility stood at 2200 µg/mL (≈ 1440 µM). For the same compound, in the series listed under Mus musculus, the ED50 was 2.18 mg/kg.

For the compound `CO/C(C)=C1/NC(=O)[C@H]([C@@H](C)O)NC(=O)c2csc(n2)-c2cc(O)c(-c3nc(C(=O)N[C@@H](C)C(=O)NCCc4ccc(O)cc4)cs3)nc2-c2csc(n2)[C@@H]2COC(=O)c3c4c5c(cccc5n3O)COC(=O)[C@@H](O[C@H]3C[C@](C)(O)[C@H](N(C)C)[C@H](C)O3)[C@@H](OC4)[C@H](NC(=O)c3csc1n3)c1nc(cs1)C(=O)N2`, in series [2], the concentration in solution (solubility) was 120 µg/mL (≈ 76.9 µM). Further, the MIC was 0.0005 µg/mL (≈ 0.000321 µM) in the series with Streptococcus pneumoniae, 0.007 µg/mL (≈ 0.00449 µM) in the series on Enterococcus faecalis and 0.003 µg/mL (≈ 0.00192 µM) against Staphylococcus aureus. Moreover, the ED50 in the series listed under Mus musculus was over 10 mg/kg.

For `CO/C(C)=C1/NC(=O)[C@H]([C@@H](C)O)NC(=O)c2csc(n2)-c2cc(O)c(-c3nc(C(=O)N[C@@H](C)C(=O)NC[C@H](O)CO)cs3)nc2-c2csc(n2)[C@@H]2COC(=O)c3c4c5c(cccc5n3O)COC(=O)[C@@H](O[C@H]3C[C@](C)(O)[C@H](N(C)C)[C@H](C)O3)[C@@H](OC4)[C@H](NC(=O)c3csc1n3)c1nc(cs1)C(=O)N2`, the MIC against Streptococcus pneumoniae was determined as 0.03 µg/mL (≈ 0.0198 µM); in the series with Enterococcus faecalis, 0.25 µg/mL (≈ 0.165 µM); in the series with Staphylococcus aureus, 0.25 µg/mL (≈ 0.165 µM). For the same compound, the solubility in series [1] was over 2200 µg/mL. For the same compound, the ED50 in the series listed under Mus musculus was found to be 5 mg/kg.

Take `CO/C(C)=C1/NC(=O)[C@H]([C@@H](C)O)NC(=O)c2csc(n2)-c2cc(O)c(-c3nc(C(=O)N[C@@H](C)C(=O)NC(CC(=O)O)C(=O)O)cs3)nc2-c2csc(n2)[C@@H]2COC(=O)c3c4c5c(cccc5n3O)COC(=O)[C@@H](O[C@H]3C[C@](C)(O)[C@H](N(C)C)[C@H](C)O3)[C@@H](OC4)[C@H](NC(=O)c3csc1n3)c1nc(cs1)C(=O)N2` (stereo partly drawn): the MIC was determined as 0.25 µg/mL (≈ 0.161 µM) against Streptococcus pneumoniae, 16 µg/mL (≈ 10.3 µM) with Enterococcus faecalis and 16 µg/mL (≈ 10.3 µM) against Staphylococcus aureus.

Turning to `CO/C(C)=C1/NC(=O)[C@H]([C@@H](C)O)NC(=O)c2csc(n2)-c2cc(O)c(-c3nc(C(=O)N[C@@H](C)C(=O)NCCc4ccc(O)c(O)c4)cs3)nc2-c2csc(n2)[C@@H]2COC(=O)c3c4c5c(cccc5n3O)COC(=O)[C@@H](O[C@H]3C[C@](C)(O)[C@H](N(C)C)[C@H](C)O3)[C@@H](OC4)[C@H](NC(=O)c3csc1n3)c1nc(cs1)C(=O)N2`, the figures for the MIC in the series with Streptococcus pneumoniae, in the series on Enterococcus faecalis and with Staphylococcus aureus were 0.125 µg/mL (≈ 0.0793 µM), 0.5 µg/mL (≈ 0.317 µM) and 0.25 µg/mL (≈ 0.159 µM), respectively. Further, in series [3], the solubility was determined as 7 µg/mL (≈ 4.44 µM). Besides, in the series filed under Mus musculus, the ED50 is over 10 mg/kg.

`CO/C(C)=C1/NC(=O)[C@H]([C@@H](C)O)NC(=O)c2csc(n2)-c2cc(O)c(-c3nc(C(=O)N[C@@H](C)C(=O)NCCc4ccncc4)cs3)nc2-c2csc(n2)[C@@H]2COC(=O)c3c4c5c(cccc5n3O)COC(=O)[C@@H](O[C@H]3C[C@](C)(O)[C@H](N(C)C)[C@H](C)O3)[C@@H](OC4)[C@H](NC(=O)c3csc1n3)c1nc(cs1)C(=O)N2`: the minimal inhibitory concentration (MIC) against Streptococcus pneumoniae turned out to be 0.015 µg/mL (≈ 0.00971 µM); against Enterococcus faecalis, 0.06 µg/mL (≈ 0.0388 µM); against Staphylococcus aureus it was 0.125 µg/mL (≈ 0.0809 µM). The same compound had a solubility in series [3] of over 3400 µg/mL. The ED50 in the series listed under Mus musculus was 3.3 mg/kg.

For the compound `CO/C(C)=C1/NC(=O)[C@H]([C@@H](C)O)NC(=O)c2csc(n2)-c2cc(O)c(-c3nc(C(=O)N[C@@H](C)C(=O)NCc4ccc(O)cc4)cs3)nc2-c2csc(n2)[C@@H]2COC(=O)c3c4c5c(cccc5n3O)COC(=O)[C@@H](O[C@H]3C[C@](C)(O)[C@H](N(C)C)[C@H](C)O3)[C@@H](OC4)[C@H](NC(=O)c3csc1n3)c1nc(cs1)C(=O)N2`, the MIC in the series with Streptococcus pneumoniae was found to be 0.007 µg/mL (≈ 0.00453 µM); against Enterococcus faecalis, 0.03 µg/mL (≈ 0.0194 µM); in the series with Staphylococcus aureus, 0.007 µg/mL (≈ 0.00453 µM). Moreover, the concentration in solution in series [1] (solubility) was 480 µg/mL (≈ 311 µM). In the series listed under Mus musculus, the ED50 is 4.35 mg/kg.

Consider `CO/C(C)=C1/NC(=O)[C@H]([C@@H](C)O)NC(=O)c2csc(n2)-c2cc(O)c(-c3nc(C(=O)N[C@@H](C)C(=O)N[C@@H]4[C@@H](O)[C@H](O)[C@@H](CO)O[C@H]4O)cs3)nc2-c2csc(n2)[C@@H]2COC(=O)c3c4c5c(cccc5n3O)COC(=O)[C@@H](O[C@H]3C[C@](C)(O)[C@H](N(C)C)[C@H](C)O3)[C@@H](OC4)[C@H](NC(=O)c3csc1n3)c1nc(cs1)C(=O)N2`, for which the MIC was 0.06 µg/mL (≈ 0.0375 µM) against Streptococcus pneumoniae, 0.5 µg/mL (≈ 0.312 µM) against Enterococcus faecalis and 1 µg/mL (≈ 0.624 µM) with Staphylococcus aureus. Besides, the solubility in series [1] is over 2200 µg/mL. Also, the ED50 in the series listed under Mus musculus is over 10 mg/kg.

Turning to `CO/C(C)=C1/NC(=O)[C@H]([C@@H](C)O)NC(=O)c2csc(n2)-c2cc(O)c(-c3nc(C(=O)N[C@@H](C)C(=O)NCCOCCO)cs3)nc2-c2csc(n2)[C@@H]2COC(=O)c3c4c5c(cccc5n3O)COC(=O)[C@@H](O[C@H]3C[C@](C)(O)[C@H](N(C)C)[C@H](C)O3)[C@@H](OC4)[C@H](NC(=O)c3csc1n3)c1nc(cs1)C(=O)N2`, the MIC was 0.015 µg/mL (≈ 0.00982 µM) in the series on Streptococcus pneumoniae, 0.25 µg/mL (≈ 0.164 µM) against Enterococcus faecalis and 0.03 µg/mL (≈ 0.0196 µM) in the series on Staphylococcus aureus. Besides, the solubility in series [1] is over 2900 µg/mL. Besides, in the series listed under Mus musculus, the ED50 turned out to be 1 mg/kg.

By MIC is commonly meant the smallest concentration in the dilution series that meets the test's criterion for growth inhibition. Low readings indicate inhibition by little substance, high ones a need for much substance. What is called solubility is the concentration that dissolves in the medium under given conditions. Low readings indicate little dissolved substance, high ones much dissolved substance.
